Measurements from patent publication US20110071150A1 (priority 2009, published 2011).

Tested on: Jurkat IL-2 Production
Assay: Jurkat IL-2 Production Assay
Type: cell-based
Details: Homo sapiens, Jurkat cell (ATCC), 18-20 h incubation, PHA 5 μg/mL with 1% FBS, or PMA/Ionomycin with 30% FBS (table does not say which)
Procedure: Jurkat IL-2 Production Assay
Cell: Jurkat cell (ATCC) was grown in RPMI 1640 with 10% FBS and 1% penicillin/streptomycin. The cell density was kept at 1.2-1.8×10^6/mL in culture flask before seeding into culture plate, and the cell density in the plate was 0.5×10^6/[…]/well.
Culture media: RPMI 1640 with 1% FBS or 30% FBS for high serum assay.
Test compound: serial dilution was done in 100% DMSO, and intermediate dilution was done with RPMI 1640 medium with 1% FBS. The DMSO final concentration in culture well was 0.25%.
Stimulant: PHA (Sigma#L9017-10MG) was used for the assay with 1% FBS in culture medium, and added after 10 minutes exposure of cell to compound/DMSO. The PHA final concentration in culture well was 5 μg/mL. PMA (Sigma# P-8139 5MG)/Ionomycin (Sigma# 10634-5MG) was used for the assay with 30% FBS in culture medium, and added at same time point as the 1% FBS culture assay. The final concentration of PMA was 50 ng/mL, and Ionomycin final concentration was 500 ng/mL.
Incubation: at 37° C. with 5% CO2 and 95% humidity for 18 h˜20 h.
IC50: IC50 was calculated with the data analysis software XLfit4, General Pharmacology model 251.

SMILES | IC50 [nM]
Cn1nc(C(F)(F)F)cc1-c1ccc2[nH]c(-c3c(F)cccc3F)cc2c1 [Example 1, 2-(2,6-Difluoro-phenyl)-5-(2-methyl-5-trifluoromethyl-2H-pyrazol-3-yl)-1H-indole] | 46
COc1ccc2c(c1)nc(C(F)(F)F)n2-c1ccc2[nH]c(-c3c(F)cccc3F)cc2c1 [Example 2, 1-[2-(2,6-Difluoro-phenyl)-1H-indol-5-yl]-5-methoxy-2-trifluoromethyl-1H-benzoimidazole] | 830
Cn1nc(C(F)(F)F)cc1-c1ccc2[nH]c(-c3ccc(OC(F)(F)F)cc3)cc2c1 [Example 3, 5-(2-Methyl-5-trifluoromethyl-2H-pyrazol-3-yl)-2-(4-trifluoromethoxy-phenyl)-1H-indole] | 954
Cc1sc(-c2ccccn2)nc1-c1ccc2[nH]c(-c3c(F)cccc3F)cc2c1 [Example 4, 2-(2,6-Difluoro-phenyl)-5-(5-methyl-2-pyridin-2-yl-thiazol-4-yl)-1H-indole] | 219
Cc1sc(-c2ccccn2)nc1-c1ccc2[nH]c(-c3ccccc3Cl)cc2c1 [Example 5, 2-(2-Chloro-phenyl)-5-(5-methyl-2-pyridin-2-yl-thiazol-4-yl)-1H-indole] | 223
Cc1ccccc1-c1cc2cc(-c3nc(-c4ccccn4)sc3C)ccc2[nH]1 [Example 6, 5-(5-Methyl-2-pyridin-2-yl-thiazol-4-yl)-2-o-tolyl-1H-indole] | 611
Cc1nc(-c2ccccc2)sc1-c1ccc2[nH]c(-c3ccccc3Cl)cc2c1 [Example 7, 2-(2-Chloro-phenyl)-5-(4-methyl-2-phenyl-thiazol-5-yl)-1H-indole] | 800
Cc1ncccc1-c1cc2cc(-c3sc(-c4ccccc4)nc3C)ccc2[nH]1 [Example 8, 5-(4-Methyl-2-phenyl-thiazol-5-yl)-2-(2-methyl-pyridin-3-yl)-1H-indole] | 287
Cc1sc(-c2ccccn2)nc1-c1ccc2[nH]c(-c3ccncc3F)cc2c1 [Example 9, 2-(3-Fluoro-pyridin-4-yl)-5-(5-methyl-2-pyridin-2-yl-thiazol-4-yl)-1H-indole] | 908
Cc1cnccc1-c1cc2cc(-c3nc(-c4ccccn4)sc3C)ccc2[nH]1 [Example 10, 2-(3-Methyl-pyridin-4-yl)-5-(5-methyl-2-pyridin-2-yl-thiazol-4-yl)-1H-indole] | 190
Cc1sc(-c2cccnc2)nc1-c1ccc2[nH]c(-c3ccccc3F)cc2c1 [Example 11, 2-(2-Fluoro-phenyl)-5-(5-methyl-2-pyridin-3-yl-thiazol-4-yl)-1H-indole] | 169
Cc1sc(-c2cccnc2)nc1-c1ccc2[nH]c(-c3ccccc3Cl)cc2c1 [Example 12, 2-(2-Chloro-phenyl)-5-(5-methyl-2-pyridin-3-yl-thiazol-4-yl)-1H-indole] | 86
Cc1sc(-c2cccnc2)nc1-c1ccc2[nH]c(-c3c(F)cccc3F)cc2c1 [Example 13, 2-(2,6-Difluoro-phenyl)-5-(5-methyl-2-pyridin-3-yl-thiazol-4-yl)-1H-indole] | 66
Cn1nc(C(F)(F)F)cc1-c1ccc2[nH]c(-c3ccccc3F)cc2c1 [Example 14, 2-(2-Fluoro-phenyl)-5-(2-methyl-5-trifluoromethyl-2H-pyrazol-3-yl)-1H-indole] | 337
CCn1nc(-c2ccccc2)cc1-c1ccc2[nH]c(-c3c(F)cccc3F)cc2c1 [Example 15, 2-(2,6-difluoro-phenyl)-5-(2-ethyl-5-phenyl-2H-pyrazol-3-yl)-1H-indole] | 468
CCn1nc(-c2ccccn2)cc1-c1ccc2[nH]c(-c3c(F)cccc3F)cc2c1 [Example 16, 2-(2,6-Difluoro-phenyl)-5-(2-ethyl-5-pyridin-2-yl-2H-pyrazol-3-yl)-1H-indole] | 211
Cn1nc(-c2ccncc2)cc1-c1ccc2[nH]c(-c3c(F)cccc3F)cc2c1 [Example 17, 2-(2,6-Difluoro-phenyl)-5-(2-methyl-5-pyridin-4-yl-2H-pyrazol-3-yl)-1H-indole] | 57
CCn1nc(-c2ccncc2)cc1-c1ccc2[nH]c(-c3c(F)cccc3F)cc2c1 [Example 18, 2-(2,6-Difluoro-phenyl)-5-(2-ethyl-5-pyridin-4-yl-2H-pyrazol-3-yl)-1H-indole] | 102
Cn1nc(-c2cccnc2)cc1-c1ccc2[nH]c(-c3c(F)cccc3F)cc2c1 [Example 19, 2-(2,6-Difluoro-phenyl)-5-(2-methyl-5-pyridin-3-yl-2H-pyrazol-3-yl)-1H-indole] | 198
CCn1nc(-c2cccnc2)cc1-c1ccc2[nH]c(-c3c(F)cccc3F)cc2c1 [Example 20, 2-(2,6-Difluoro-phenyl)-5-(2-ethyl-5-pyridin-3-yl-2H-pyrazol-3-yl)-1H-indole] | 101

SMILES | IC50 [nM]
Cc1sc(-c2ccncc2)nc1-c1ccc2[nH]c(-c3c(F)cccc3F)cc2c1 [Example 21, 2-(2,6-Difluoro-phenyl)-5-(5-methyl-2-pyridin-4-yl-thiazol-4-yl)-1H-indole] | 90
Cc1sc(-c2ccncc2)nc1-c1ccc2[nH]c(-c3ccccc3Cl)cc2c1 [Example 22, 2-(2-Chloro-phenyl)-5-(5-methyl-2-pyridin-4-yl-thiazol-4-yl)-1H-indole] | 150
Cc1ccc(-c2ncco2)cc1-c1ccc2[nH]c(-c3c(F)cccc3F)cc2c1 [Example 23, 2-(2,6-Difluoro-phenyl)-5-(2-methyl-5-oxazol-2-yl-phenyl)-1H-indole] | 210
Fc1cccc(F)c1-c1cc2cc(-c3cccc(-c4ncco4)c3)ccc2[nH]1 [Example 24, 2-(2,6-Difluoro-phenyl)-5-(3-oxazol-2-yl-phenyl)-1H-indole] | 427
Cc1ccc(-c2nccs2)cc1-c1ccc2[nH]c(-c3c(F)cccc3F)cc2c1 [Example 25, 2-(2,6-Difluoro-phenyl)-5-(2-methyl-5-thiazol-2-yl-phenyl)-1H-indole] | 224
COc1ccc(OC)c(-c2ccc3[nH]c(-c4c(F)cccc4F)cc3c2)c1 [Example 26, 2-(2,6-Difluoro-phenyl)-5-(2,5-dimethoxy-phenyl)-1H-indole] | 639
Cc1cc(C#N)ccc1-c1ccc2[nH]c(-c3c(F)cccc3F)cc2c1 [Example 27, 4-[2-(2,6-Difluoro-phenyl)-1H-indol-5-yl]-3-methyl-benzonitrile] | 97
COc1ccc(-c2ccc3[nH]c(-c4c(F)cccc4F)cc3c2)c(C)c1 [Example 28, 2-(2,6-Difluoro-phenyl)-5-(4-methoxy-2-methyl-phenyl)-1H-indole] | 123
Cc1ccc(-c2ccc3[nH]c(-c4c(F)cccc4F)cc3c2)c(C)c1 [Example 29, 2-(2,6-Difluoro-phenyl)-5-(2,4-dimethyl-phenyl)-1H-indole] | 168
COC(=O)c1ccc(-c2ccc3[nH]c(-c4c(F)cccc4F)cc3c2)c(C)c1 [Example 30] | 85
Cc1cc(Cl)ccc1-c1ccc2[nH]c(-c3c(F)cccc3F)cc2c1 [Example 31, 5-(4-Chloro-2-methyl-phenyl)-2-(2,6-difluoro-phenyl)-1H-indole] | 174
Cc1cc(C(F)(F)F)ccc1-c1ccc2[nH]c(-c3c(F)cccc3F)cc2c1 [Example 32, 2-(2,6-Difluoro-phenyl)-5-(2-methyl-4-trifluoromethyl-phenyl)-1H-indole] | 71
Cn1nc(C(F)(F)F)cc1-c1ccc2[nH]c(-c3cc(Cl)ccc3F)cc2c1 [Example 33, 2-(5-Chloro-2-fluoro-phenyl)-5-(2-methyl-5-trifluoromethyl-2H-pyrazol-3-yl)-1H-indole] | 741
Cn1nc(C(F)(F)F)cc1-c1ccc2[nH]c(-c3ccc(Cl)cc3Cl)cc2c1 [Example 34, 2-(2,4-Dichloro-phenyl)-5-(2-methyl-5-trifluoromethyl-2H-pyrazol-3-yl)-1H-indole] | 184
Cn1nc(C(F)(F)F)cc1-c1ccc2[nH]c(-c3ccc(F)cc3Cl)cc2c1 [Example 35, 2-(2-Chloro-4-fluoro-phenyl)-5-(2-methyl-5-trifluoromethyl-2H-pyrazol-3-yl)-1H-indole] | 116
Cn1nc(C(F)(F)F)cc1-c1ccc2[nH]c(-c3ccncc3Cl)cc2c1 [Example 36, 2-(3-Chloro-pyridin-4-yl)-5-(2-methyl-5-trifluoromethyl-2H-pyrazol-3-yl)-1H-indole] | 131
Cc1cnccc1-c1cc2cc(-c3cc(C(F)(F)F)nn3C)ccc2[nH]1 [Example 37, 2-(3-Methyl-pyridin-4-yl)-5-(2-methyl-5-trifluoromethyl-2H-pyrazol-3-yl)-1H-indole] | 120
COc1ccc(-c2cc3cc(-c4cc(C(F)(F)F)nn4C)ccc3[nH]2)c(C)n1 [Example 38, 2-(6-Methoxy-2-methyl-pyridin-3-yl)-5-(2-methyl-5-trifluoromethyl-2H-pyrazol-3-yl)-1H-indole] | 83
COC(=O)c1ccc(-c2cc3cc(-c4cc(C(F)(F)F)nn4C)ccc3[nH]2)c(C)c1 [Example 39, 3-Methyl-4-[5-(2-methyl-5-trifluoromethyl-2H-pyrazol-3-yl)-1H-indol-2-yl]-benzoic acid methyl ester] | 148
Cc1cc(C(=O)O)ccc1-c1cc2cc(-c3cc(C(F)(F)F)nn3C)ccc2[nH]1 [Example 40] | 728
